Laboratory results from patent US9175037B2, “Neuromedin U derivative” (Takeda Pharmaceutical Company Limited, priority 2009, dated 2015).
Non-standard residues stand in square brackets, D forms with d. No end group written: not given here. *: point of attachment. Acetyl(2-(piperazin-1-yl)) = O=C(CN1CCNCC1)*; PEG20k = methoxypolyethylene glycol 20k; NMeA = CN[C@@H](C)C(=O)O; βAla = NCCC(=O)O

Legend:
Human FM3 = target: T1, Human FM3 (Homo sapiens, UniProt Q9HB89); test: Receptor binding test: inhibition of 125I-NMU8 binding to FM3 membrane fraction; settings: ratio of IC50 values when the affinity of NMU-8 was 1; 125I-NMU8 135 pM, CHO cell membrane fraction
T1 construct: expressed in transfected cells; host or cells: CHO (dhfr-) cells; membrane fraction
T1 sequence (Q9HB89 1-426): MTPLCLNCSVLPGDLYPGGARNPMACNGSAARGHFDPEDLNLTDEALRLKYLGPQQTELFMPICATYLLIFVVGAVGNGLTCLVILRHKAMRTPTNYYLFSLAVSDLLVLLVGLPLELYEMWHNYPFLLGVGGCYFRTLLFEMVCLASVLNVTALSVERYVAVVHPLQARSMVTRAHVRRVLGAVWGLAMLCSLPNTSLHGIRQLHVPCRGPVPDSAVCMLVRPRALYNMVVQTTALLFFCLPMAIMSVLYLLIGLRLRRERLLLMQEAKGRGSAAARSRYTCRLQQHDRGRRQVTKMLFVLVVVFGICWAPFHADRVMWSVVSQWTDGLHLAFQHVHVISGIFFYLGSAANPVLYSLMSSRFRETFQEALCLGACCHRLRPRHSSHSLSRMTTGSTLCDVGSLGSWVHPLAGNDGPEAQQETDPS

human TGR1 = target: T2, human TGR1 (Homo sapiens, UniProt Q9GZQ4); test: Receptor binding test: inhibition of 125I-NMU8 binding to TGR1 membrane fraction; settings: ratio of IC50 values when the affinity of NMU-8 was 1; 125I-NMU8 135 pM, CHO cell membrane fraction
T2 construct: expressed in transfected cells; host or cells: CHO (dhfr-) cells; membrane fraction
T2 sequence (Q9GZQ4 whole entry): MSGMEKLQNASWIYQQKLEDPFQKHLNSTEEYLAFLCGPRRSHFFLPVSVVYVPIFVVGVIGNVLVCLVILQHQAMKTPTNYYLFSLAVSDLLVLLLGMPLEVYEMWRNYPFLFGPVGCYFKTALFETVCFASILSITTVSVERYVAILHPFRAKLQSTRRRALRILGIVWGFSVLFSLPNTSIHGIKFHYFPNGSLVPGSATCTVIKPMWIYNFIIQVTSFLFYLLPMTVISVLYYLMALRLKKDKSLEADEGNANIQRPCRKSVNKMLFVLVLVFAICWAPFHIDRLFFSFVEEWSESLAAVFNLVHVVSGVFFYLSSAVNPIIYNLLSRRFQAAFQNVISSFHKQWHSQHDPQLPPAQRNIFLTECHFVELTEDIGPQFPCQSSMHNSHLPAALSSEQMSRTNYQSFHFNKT
Protocol: CHO cells expressing Human FM3 (dhfr-) and CHO cells expressing human TGR1 (dhfr-) were cultured in 10% dialyzed FBS-containing MEMα (Invitrogen) medium under conditions of 5% carbon dioxide at 37° C. The adherent cells were detached with 10 mL of 0.1 mM EDTA-containing D-PBS (Invitrogen) and centrifuged for 10 minutes at 1,000 rpm at 4° C., thereby collecting the cells. 15 mL of homogenized buffer (10 mM NaHCO3 (pH 7.4), 5 mM EDTA, protease inhibitor=0.5 mM PMSF, 10 μg/mL Pepstatin A, 20 μg/mL Leupeptin, and 4 μg/mL E-64) was added to the obtained cell pellets, the cellular membrane was disrupted using a polytron homogenizer (Kinematica GmbH), centrifugation was conducted for 10 minutes at 1,000 g at 4° C., and the supernatant was collected. This process was further repeated twice, and ultracentrifugation was conducted for 60 minutes at 30,000 rpm at 4° C. Thereafter, 8 mL of homogenized buffer was added to the pellets and suspended homogeneously to prepare a membrane fraction. The protein concentration of the FM3-expressing CHO cellular membrane fraction was 1.2 mg/mL, and the protein concentration of the TGR1-expressing CHO cellular membrane fraction was 1.1 mg/mL.
The affinity of the NMU-8 derivatives and PEG conjugates shown in Table 2 (Table 2-1 and Table 2-2) with respect to each receptor was evaluated based on the inhibition of ^125I-NMU8 labeled ligand binding to the FM3 membrane fraction or to the TGR1 membrane fraction. Specifically, each of the NMU derivatives and PEG conjugates was dissolved in DMSO so as to prepare 2 μL of each dilution series of the NMU derivatives and PEG conjugates. Then, 100 μL of membrane fraction solutions diluted with a reaction buffer (50 mM HEPES, 1 mM EDTA protease inhibitor (0.5 mM PMSF), 10 μg/mL Pepstatin A, 20 μg/mL Leupeptin, and 4 μg/mL E-64, pH 6.8, 0.1% BSA) was added thereto, followed by further addition of 100 μL of the labeled ligand (final concentration: 135 pM) similarly diluted with the reaction buffer. The resulting product was thoroughly mixed, and then a reaction was carried out at 25° C. for 70 minutes. In accordance with the above-described procedure, the binding amount of the labeled ligand remaining in the filter was measured using a top count (PerkinElmer) by a liquid scintillation method, and the IC50 values were calculated using a Graph Pad Prism (FIG. 1 (FM3 receptor binding), FIG. 2 (TGR1 receptor binding), and Table 2).

[1] = Anorectic activity via peripheral administration; assay type: in vivo

Substance | FM3 Receptor Binding IC50 ratio (Human FM3) | TGR1 Receptor Binding IC50 ratio (human TGR1) | anorectic activity [1]
PEG20k-NPipAc-Phe1, Trp2,Ala6-NMU-8 ({PEG20k-Acetyl(2-(piperazin-1-yl))}-FWLFRARN-NH2) [Compound K] | 11000 | – | –
NpipAc0,Phe1,Trp2,Ala6-NMU-8 [Compound 11] | 280 | 0.19 | –
PEG30k-NH-β-Ala0,Val3-NMU-8 [Compound D] | 5.3 | 2.2 | –
β-Ala0,NMeArg5-NMU-8 [Compound 13] | 0.46 | 1.1 | –
β-Ala0,NMeLeu3,NMeArg7-NMU-8 [Compound 15] | 8.6 | 19 | –
β-Ala0,Glu2,NMeAla6-NMU-8 [Compound 18] | 26000 | 31 | –
PEG20k-NpipAc-Glu2,NMeAla6-NMU8 ({PEG20k-Acetyl(2-(piperazin-1-yl))}-YELFR[NMeA]RN-NH2) [Compound U] | >10000 | – | –
NpipAc0,Glu2,Ala6-NMU-8 [Compound 19] | 24000 | 25 | –
PEG30k-NH-β-Ala0,Arg1-NMU-8 [Compound G] | 1.5 | 8.5 | –
PEG20k-NH-β-Ala0,NMeTyr1,NMeLeu3,NMeArg5-NMU-8 [Compound P] | 83 | 240 | –
NpipAc0,Glu2,NMeAla6-NMU-8 [Compound 21] | 6500 | 5.5 | –
PEG30k-NH-β-Ala0,Gln3-NMU-8 [Compound B] | 1.8 | 7.3 | –
β-Ala0,Arg3-NMU-8 [Compound 3] | 0.07 | 0.38 | –
PEG30k-NH-β-Ala0,Tyr2-NMU-8 [Compound E] | 8.1 | 1.7 | –
β-Ala0,Gln5-NMU-8 [Compound 1] | 15 | 3.4 | –
PEG30k-NH-β-Ala0,Asp8-NMU-8 [Compound L] | 150 | 34 | –
NpipAc0,Nal(2)2,NMeAla6-NMU-8 [Compound 22] | 99 | 1.7 | –
PEG20k-NH-β-Ala0,NMeLeu3,NMeArg7-NMU-8 [Compound O] | 75 | 170 | –
β-Ala0,Arg1-NMU-8 [Compound 7] | 0.42 | 3.7 | –
NMU-23: Rat NMU consists of 23 amino acid residues, and is named NMU-23 (YKVNEYQGPVAPSGGFFLFRPRN; ends and bridges not checked; UniProt P12760 144-166, looked up) | – | – | induces an anorectic activity

Substance | FM3 Receptor Binding IC50 ratio (Human FM3) | TGR1 Receptor Binding IC50 ratio (human TGR1) | anorectic activity [1]
PEG30k-NH-β-Ala0,Pro1-NMU-8 [Compound H] | 9.4 | 21 | –
PEG30k-NH-β-Ala0,Cha3-NMU-8 [Compound F] | 1.3 | 11 | –
PEG20k-NpipAc-Trp2,Ala6-NMU8 ({PEG20k-Acetyl(2-(piperazin-1-yl))}-YWLFRARN-NH2) [Compound T] | >10000 | – | –
PEG30k-NH-β-Ala0,NMeArg5-NMU-8 [Compound M] | 9.0 | 29 | –
β-Ala0,Val3-NMU-8 [Compound 4] | 0.43 | 0.37 | –
β-Ala0,Gln3-NMU-8 [Compound 2] | 0.31 | 3.9 | –
2-(piperazin-1-yl)acetyl-Arg3-NMU8 [Compound 10] | 0.27 | 0.66 | –
PEG20k-NH-β-Ala0,Glu2,NMeAla6-NMU-8 ({PEG20k-βAla}-YELFR[NMeA]RN-NH2) [Compound R] | >7300 | – | –
β-Ala0,Pro1-NMU-8 [Compound 8] | 0.59 | 3.8 | –
NpipAc0,Trp2,Ala6-NMU-8 [Compound 20] | 900 | 1.9 | –
PEG30k-NH-β-Ala0,Arg(Me) 7-NMU-8 [Compound N] | 290 | 63 | –
PEG30k-NH-β-Ala0,Gln5-NMU-8 [Compound A] | 160 | 9.6 | –
β-Ala0,Trp2,NMeAla6-NMU-8 [Compound 17] | 92 | 1.9 | –
β-Ala0,Asp8-NMU-8 [Compound 12] | 2.4 | 2.0 | –
PEG30k-NH-β-Ala0,Arg3-NMU-8 [Compound C] | 1.7 | 2.6 | –
PEG20k-NH-β-Ala0,Trp2,NMeAla6-NMU-8 [Compound Q] | 1600 | 47 | –
β-Ala0,Arg(Me)7-NMU-8 [Compound 14] | 6.3 | 3.6 | –
β-Ala0,Cha3-NMU-8 [Compound 6] | 0.55 | 9.9 | –
PEG20k-NpipAc-Glu2,Ala6-NMU8 ({PEG20k-Acetyl(2-(piperazin-1-yl))}-YELFRARN-NH2) [Compound S] | >10000 | – | –
Tyr-Phe-Leu-Phe-Arg-Pro-Arg-Asn-NH2 [NMU-8] | – | – | does not induce an anorectic activity
